Source: patent US20230143612A1 (Arbutus Biopharma Corporation, priority 2020, published 2023)

biological target: PD-L1 His protein / PD-1 Fc protein (Homo sapiens, UniProt Q9NZQ7); experiment: HTRF Assay (PD-1/PD-L1 interaction); format: binding; details: PD-L1 His 6 nM, PD-1 Fc 6 nM
How it was run: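 HTRF: PD-L1 His (6 nM final), compound (3-fold dilutions, 20 μM to 0.001 μM final) and PD-1 Fc (6 nM final) preincubated 15 min at room temperature. Anti-human IgG-XL665 and anti-6HIS Tb cryptate (mixed at 6.7 nM and 0.35 nM) then added for 1 h at room temperature before reading.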

Chain of PD-L1 His protein / PD-1 Fc protein (Q9NZQ7 19-238 limits assumed): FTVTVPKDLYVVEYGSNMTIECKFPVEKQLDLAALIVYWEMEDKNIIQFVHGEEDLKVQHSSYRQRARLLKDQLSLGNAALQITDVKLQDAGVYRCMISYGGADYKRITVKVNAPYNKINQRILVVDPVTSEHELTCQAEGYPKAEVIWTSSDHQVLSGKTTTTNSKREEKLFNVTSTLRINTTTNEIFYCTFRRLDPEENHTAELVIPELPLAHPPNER

| Structure (SMILES) | IC50 |
| --- | --- |
| COC(=O)C1(CNCc2cnc3cc(-c4cccc(-c5cccc(-c6ccc(CNC[C@@H]7CCC(=O)N7)c(OC)n6)c5Cl)c4Cl)ccn3c2=O)COC1 [Example 358, methyl (S)-3-((((8-(2,2′-dichloro-3′-(6-methoxy-5-((((5-oxopyrrolidin-2-yl)-methyl)-amino)-methyl)-pyridin-2-yl)-[1,1′-biphenyl]-3-yl)-4-oxo-4H-pyrido[1,2-a]pyrimidin-3-yl)-methyl)-amino)-methyl)oxetane-3-carboxylate] | 0.1 nM |
| COc1nc(-c2cccc(-c3cccc(-c4ccn5c(=O)c(CNCC6NC(=O)CC6(C)C)cnc5c4)c3Cl)c2Cl)ccc1CNC[C@@H]1CCC(=O)N1 (stereo partly drawn) [Example 359, 8-(2,2′-dichloro-3′-(6-methoxy-5-(((((S)-5-oxopyrrolidin-2-yl)methyl)-amino)-methyl)-pyridin-2-yl)-[1,1′-biphenyl]-3-yl)-3-((((3,3-dimethyl-5-oxopyrrolidin-2-yl)methyl)amino)methyl)-4H-pyrido[1,2-a]pyrimidin-4-one] | 67 nM |
| COc1cc(-c2cccc(-c3cccc(-c4ccn5c(=O)c(CNC[C@@H]6CCC(=O)N6)cnc5c4)c3Cl)c2Cl)cnc1CNC[C@@H]1CCC(=O)N1 [Example 360, 8-(2,2′-Dichloro-3′-(5-methoxy-6-(((((S)-5-oxopyrrolidin-2-yl)-methyl)-amino)methyl)-pyridin-3-yl)-[1,1′-biphenyl]-3-yl)-3-(((((S)-5-oxopyrrolidin-2-yl)methyl)amino)methyl)-4H-pyrido[1,2-a]pyrimidin-4-one] | 0.7 nM |
| COc1cc(-c2cccc(-c3cccc(-c4ccn5c(=O)c(CN[C@H]6C[C@](C)(O)C6)cnc5c4)c3Cl)c2Cl)cnc1CN[C@H]1C[C@](C)(O)C1 [Example 361, 8-(2,2′-Dichloro-3′-(6-((((1r,3r)-3-hydroxy-3-methylcyclobutyl)amino)methyl)-5-methoxypyridin-3-yl)-[1,1′-biphenyl]-3-yl)-3-((((1r,3r)-3-hydroxy-3-methylcyclobutyl)amino)methyl)-4H-pyrido[1,2-a]pyrimidin-4-one] | 39 nM |
| COc1cc(-c2cccc(-c3cccc(-c4ccn5c(=O)c(CN(C)CCO)cnc5c4)c3Cl)c2Cl)cnc1CN(C)CCO [Example 362, 8-(2,2′-Dichloro-3′-(6-(((2-hydroxyethyl)(methyl)amino)methyl)-5-methoxypyridin-3-yl)-[1,1′-biphenyl]-3-yl)-3-(((2-hydroxyethyl)(methyl)amino)methyl)-4H-pyrido[1,2-a]pyrimidin-4-one] | 36 nM |
| COc1nc(-c2cccc(-c3cccc(-c4ccc5c(c4)CNCCN5C)c3Cl)c2Cl)ccc1CNC[C@@H]1CCC(=O)N1 [Example 363, (S)-5-((((6-(2,2′-Dichloro-3′-(1-methyl-2,3,4,5-tetrahydro-1H-benzo[e][1,4]diazepin-7-yl)-[1,1′-biphenyl]-3-yl)-2-methoxypyridin-3-yl)methyl)amino)methyl)pyrrolidin-2-one] | 85 nM |
| COc1nc(-c2cccc(-c3cccc(-c4ccc5c(c4)N(C)CCNC5)c3Cl)c2Cl)ccc1CNC[C@@H]1CCC(=O)N1 [Example 364, (S)-5-((((6-(2,2′-Dichloro-3′-(1-methyl-2,3,4,5-tetrahydro-1H-benzo[e][1,4]diazepin-8-yl)-[1,1′-biphenyl]-3-yl)-2-methoxypyridin-3-yl)methyl)amino)methyl)pyrrolidin-2-one] | 150 nM |
| COc1nc(-c2cccc(-c3cccc(-c4ccc5c(c4)cc4n5CCNC4)c3Cl)c2Cl)ccc1CNC[C@@H]1CCC(=O)N1 [Example 365, (S)-5-((((6-(2,2′-Dichloro-3′-(1,2,3,4-tetrahydropyrazino[1,2-a]indol-8-yl)-[1,1′-biphenyl]-3-yl)-2-methoxypyridin-3-yl)methyl)amino)methyl)919yrrolidine-2-one] | 13 nM |
| COc1nc(-c2cccc(-c3cccc(-c4ccc5c(n4)c(Cl)c(CNC[C@@H]4CCC(=O)N4)n5C)c3Cl)c2Cl)ccc1CNC[C@@H]1CCC(=O)N1 [Example 366, (S)-5-((((3-Chloro-5-(2,2′-dichloro-3′-(6-methoxy-5-(((((S)-5-oxopyrrolidin-2-yl)methyl)-amino)methyl)-pyridin-2-yl)-[1,1′-biphenyl]-3-yl)-1-methyl-1H-pyrrolo[3,2-b]pyridin-2-yl)methyl)amino)-methyl)-pyrrolidin-2-one] | 1.5 nM |
| COc1nc(-c2cccc(-c3cccc(-c4ccc5c(OC)c(CNC[C@H](C)O)cc(Cl)c5n4)c3Cl)c2Cl)ccc1CNC[C@@H]1CCC(=O)N1 [Example 367, (S)-5-((((6-(2,2′-Dichloro-3′-(8-chloro-6-((((S)-2-hydroxypropyl)amino)methyl)-5-methoxyquinolin-2-yl)-[1,1′-biphenyl]-3-yl)-2-methoxypyridin-3-yl)methyl)amino)methyl)pyrrolidin-2-one] | 21 nM |
| COc1nc(-c2cccc(-c3cccc(-c4ccn5c(=O)c(CNCC6(C)CCC(=O)N6)cnc5c4)c3Cl)c2Cl)ccc1CNC[C@@H]1CCC(=O)N1 (stereo partly drawn) [Example 368, 8-(2,2′-dichloro-3′-(6-methoxy-5-(((((S)-5-oxopyrrolidin-2-yl)-methyl)-amino)-methyl)-pyridin-2-yl)-[1,1′-biphenyl]-3-yl)-3-((((2-methyl-5-oxopyrrolidin-2-yl)methyl)-amino)-methyl)-4H-pyrido[1,2-a]pyrimidin-4-one] | 1 nM |
| COc1nc(-c2cccc(-c3cccc(-c4ccc5cc(CNC[C@@H]6CCC(=O)N6)ccc5n4)c3Cl)c2Cl)ccc1CNC[C@@H]1CCC(=O)N1 [Example 369, (5S)-5-[[[2-[2-Chloro-3-[2-chloro-3-[6-methoxy-5-[[[(2S)-5-oxopyrrolidin-2-yl]methylamino]methyl]-2-pyridyl]phenyl]phenyl]-6-quinolyl]methylamino]methyl]pyrrolidin-2-one] | 560 nM |
| COc1nc(-c2cccc(-c3cccc(-c4cnc5cc(CNC[C@@H]6CCC(=O)N6)ccc5c4)c3Cl)c2Cl)ccc1CNC[C@@H]1CCC(=O)N1 [Example 370, (5S)-5-[[[3-[2-Chloro-3-[2-chloro-3-[6-methoxy-5-[[[(2S)-5-oxopyrrolidin-2-yl]methylamino]methyl]-2-pyridyl]phenyl]phenyl]-7-quinolyl]methylamino]methyl]pyrrolidin-2-one] | 580 nM |
| COc1nc(-c2cccc(-c3cccc(-c4ccn5c(=O)c(C)c(CNCCO)nc5c4)c3Cl)c2Cl)ccc1CNC[C@@H]1CCC(=O)N1 [Example 371, (S)-8-(2,2′-Dichloro-3′-(6-methoxy-5-((((5-oxopyrrolidin-2-yl)methyl)amino)methyl)pyridin-2-yl)-[1,1′-biphenyl]-3-yl)-2-(((2-hydroxyethyl)amino)methyl)-3-methyl-4H-pyrido[1,2-a]pyrimidin-4-one] | 33 nM |
| COc1nc(-c2cccc(-c3cccc(-c4ccn5c(=O)c(C)c(CNC[C@@H]6CCC(=O)N6)nc5c4)c3Cl)c2Cl)ccc1CNC[C@@H]1CCC(=O)N1 [Example 372, 8-(2,2′-Dichloro-3′-(6-methoxy-5-(((((S)-5-oxopyrrolidin-2-yl)methyl)amino)methyl)pyridin-2-yl)-[1,1′-biphenyl]-3-yl)-3-methyl-2-(((((S)-5-oxopyrrolidin-2-yl)methyl)amino)methyl)-4H-pyrido[1,2-a]pyrimidin-4-one] | 60 nM |
| COc1nc(-c2cccc(-c3cccc(-c4ccn5c(=O)c(C)c(CN[C@H]6C[C@](C)(O)C6)nc5c4)c3Cl)c2Cl)ccc1CNC[C@@H]1CCC(=O)N1 [Example 373, 8-(2,2′-Dichloro-3′-(6-methoxy-5-(((((S)-5-oxopyrrolidin-2-yl)methyl)amino)methyl)pyridin-2-yl)-[1,1′-biphenyl]-3-yl)-2-((((1r,3r)-3-hydroxy-3-methylcyclobutyl)amino)methyl)-3-methyl-4H-pyrido[1,2-a]pyrimidin-4-one] | 33 nM |
| COc1nc(-c2cccc(-c3cccc(-c4ccn5c(=O)c6c(nc5c4)N(C)CCNC6)c3Cl)c2Cl)ccc1CNC[C@@H]1CCC(=O)N1 [Example 374, (S)-10-(2,2′-Dichloro-3′-(6-methoxy-5-((((5-oxopyrrolidin-2-yl)methyl)amino)methyl)pyridin-2-yl)-[1,1′-biphenyl]-3-yl)-1-methyl-2,3,4,5-tetrahydropyrido[1′,2′:1,2]pyrimido [4,5-e][1,4]diazepin-6(1H)-one] | 6.5 nM |
| COc1nc(-c2cccc(-c3cccc(-c4cnc5c(CNC[C@@H]6CCC(=O)N6)cn(C)c5c4)c3Cl)c2Cl)ccc1CNC[C@@H]1CCC(=O)N1 [Example 375, (S)-5-((((6-(2,2′-Dichloro-3′-(1-methyl-3-(((((S)-5-oxopyrrolidin-2-yl)methyl)amino)methyl)-1H-pyrrolo[3,2-b]pyridin-6-yl)-[1,1′-biphenyl]-3-yl)-2-methoxypyridin-3-yl)methyl)amino)methyl)pyrrolidin-2-one] | 180 nM |
| COc1nc(-c2cccc(-c3cccc(-c4ccn5c(=O)cc(CN[C@H]6C[C@](C)(O)C6)nc5c4)c3Cl)c2Cl)ccc1CNC[C@@H]1CCC(=O)N1 [Example 376, 8-(2,2′-Dichloro-3′-(6-methoxy-5-(((((S)-5-oxopyrrolidin-2-yl)methyl)amino)methyl)pyridin-2-yl)-[1,1′-biphenyl]-3-yl)-2-((((1r,3r)-3-hydroxy-3-methylcyclobutyl)amino)methyl)-4H-pyrido[1,2-a]pyrimidin-4-one] | 0.7 nM |
| COc1nc(-c2cccc(-c3cccc(-c4ccn5c(=O)c(C)c(CNC[C@H](C)O)nc5c4)c3Cl)c2Cl)ccc1CNC[C@@H]1CCC(=O)N1 [Example 377, 8-(2,2′-Dichloro-3′-(6-methoxy-5-(((((S)-5-oxopyrrolidin-2-yl)methyl)amino)methyl)pyridin-2-yl)-[1,1′-biphenyl]-3-yl)-2-((((S)-2-hydroxypropyl)amino)methyl)-3-methyl-4H-pyrido[1,2-a]pyrimidin-4-one] | 21 nM |
